Experimental data published in patent US8722849B2, “Polypeptides” (Novo Nordisk A/S, priority 2011, dated 2014).
Where two headings read alike, the source gives them in different places. Starred links: 1 amine or outer side, 2 acyl side, 3 side chain; linkers in the order of their positions; H or OH if unused. Positions of bridges follow the written chain, without caps; N, C: chain ends. Residues, ends and D or L forms follow the SMILES beside them. *: point of attachment. C20 diacid = O=C(O)CCCCCCCCCCCCCCCCCCC(=O)*; γGlu = O=C(O)[C@H](CCC(=O)[*:2])N[*:1]

Tests used:
[1] = molecular target: T1, human calcitonin receptor (Homo sapiens, UniProt P30988); assay: Assay (II)a functional CRE-luciferase assay, human calcitonin receptor; type: cell-based
T1 construct: expressed in transfected cells; host or cells: BHK570
T1 sequence (P30988 25-474): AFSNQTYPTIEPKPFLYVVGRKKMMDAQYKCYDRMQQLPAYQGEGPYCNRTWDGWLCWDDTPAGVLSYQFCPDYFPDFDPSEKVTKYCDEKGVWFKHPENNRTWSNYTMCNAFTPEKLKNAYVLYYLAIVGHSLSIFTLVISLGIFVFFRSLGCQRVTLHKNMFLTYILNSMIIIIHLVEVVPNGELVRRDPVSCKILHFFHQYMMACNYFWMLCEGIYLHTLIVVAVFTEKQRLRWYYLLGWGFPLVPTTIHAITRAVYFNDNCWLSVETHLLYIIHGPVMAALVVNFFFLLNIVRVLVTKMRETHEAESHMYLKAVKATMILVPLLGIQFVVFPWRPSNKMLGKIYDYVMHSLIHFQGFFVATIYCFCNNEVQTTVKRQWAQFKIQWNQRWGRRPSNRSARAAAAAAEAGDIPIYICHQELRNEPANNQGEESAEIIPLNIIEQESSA
From the text: (§1) 1. Luciferase Assay Outline
(§2) Activation of calcitonin and amylin (coexpression of calcitonin receptor and receptor activity modifying proteins (RAMP)) receptors lead to increased intracellular concentrations of cAMP. Consequently, transcription is activated by promoters containing multiple copies of the cAMP response element (CRE). It is thus possible to measure amylin activity by the use of a CRE luciferase reporter gene introduced into BHK cells also expressing calcitonin or amylin receptors.
(§3) A BHK570 cell line was stably transfected with the human calcitonin receptor and a CRE-responsive luciferase reporter gene. The cell line was further transfected with RAMP-3, using standard methods. This turns the calcitonin receptor into an amylin 3(a) receptor. Methotrexate, Neomycin, and Hygromycin are selection markers for luciferase, the calcitonin receptor, and RAMP-3, respectively.
(§4) To perform activity assays, BHK calcitonin (a) receptor- or amylin 3(a)-receptor/CRE-luc cells were seeded in white 96 well culture plates at a density of about 20.000 cells/well. […] Further, 50 μl/well of standard or sample in assay buffer were added. After 3 hours incubation at 37° C. and 5% CO2, the assay medium with standard or sample were removed and replaced by 100 μl/well PBS. Further, 100 μl/well LucLite™ was added. The plates were sealed and incubated at room temperature for 30 minutes. Finally, luminescence was measured on a TopCounter (Packard) in SPC (single photon counting) mode.

[2] = molecular target: T2, human amylin receptor (amylin 3(a) receptor: human calcitonin receptor + RAMP-3) (Homo sapiens, UniProt O60896+P30988); assay: Assay (II)a functional CRE-luciferase assay, human amylin receptor; type: cell-based; settings: human amylin receptor
T2 construct: expressed in transfected cells; host or cells: BHK570
T2 sequence (P30988 25-474): T1 sequence (P30988 25-474)
T2 sequence (O60896 24-148 partner): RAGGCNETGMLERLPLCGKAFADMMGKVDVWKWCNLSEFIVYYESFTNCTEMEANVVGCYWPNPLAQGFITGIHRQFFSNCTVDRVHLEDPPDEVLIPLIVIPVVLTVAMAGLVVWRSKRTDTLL
From the text: as §1, §2, §3, §4

[3] = Table 7, human calcitonin (CTa) receptor

**Q.** For `CC[C@H](C)[C@H](NC(=O)[C@@H]1CCCN1C(=O)CNC(=O)[C@H](Cc1ccccc1)NC(=O)[C@H](CC(N)=O)NC(=O)[C@H](CC(N)=O)NC(=O)[C@H](CO)NC(=O)[C@H](CO)NC(=O)[C@H](CCCNC(=N)N)NC(=O)[C@H](Cc1c[nH]cn1)NC(=O)[C@H](CC(C)C)NC(=O)[C@H](Cc1ccccc1)NC(=O)[C@H](CCC(=O)O)NC(=O)[C@H](C)NC(=O)[C@H](CC(C)C)NC(=O)[C@H](CCCNC(=N)N)NC(=O)[C@H](CCC(N)=O)NC(=O)[C@@H](NC(=O)[C@H](CCC(=O)O)NC(=O)[C@@H]1CSSC[C@H](NC(=O)[C@H](Cc2c[nH]cn2)NC(=O)CC[C@H](NC(=O)CCCCCCCCCCCCCCCCCCC(=O)O)C(=O)O)C(=O)N[C@@H](CC(N)=O)C(=O)N[C@@H]([C@@H](C)O)C(=O)N[C@@H](C)C(=O)N[C@@H]([C@@H](C)O)C(=O)N1)[C@@H](C)O)C(=O)N[C@@H](CC(C)C)C(=O)N1CCC[C@H]1C(=O)N1CCC[C@H]1C(=O)N[C@H](C(=O)N[C@@H](CC(N)=O)C(=O)N[C@H](C(=O)NCC(=O)N[C@@H](CO)C(=O)N[C@@H](CC(N)=O)C(=O)N[C@H](C(=O)N[C@@H](Cc1ccc(O)cc1)C(N)=O)[C@@H](C)O)C(C)C)[C@@H](C)O` [Example 2, N-alpha-[(S)-4-Carboxy-4-(19-carboxynonadecanoylamino)butyryl]-[His1,Glu8,Glu14,His17,Arg18]-pramlintide] ({C20 diacid-γGlu}-HCNTATCETQRLAEFLHRSSNNFGPILPPTNVGSNTY-NH2; disulfide 2-7 (inferred)), which EC50 ([1]; Table 11, read-out: CTa receptor human EC50) is on record?
**A.** 4300 pM

**Q.** And the EC50 ([2]; Table 6)?
**A.** 602 pM

**Q.** What does the source list for `CC[C@H](C)[C@H](NC(=O)[C@@H]1CCCN1C(=O)CNC(=O)[C@H](Cc1ccccc1)NC(=O)[C@H](CC(N)=O)NC(=O)[C@H](CC(N)=O)NC(=O)[C@H](CO)NC(=O)[C@H](CO)NC(=O)[C@H](Cc1c[nH]cn1)NC(=O)[C@H](CCCNC(=N)N)NC(=O)[C@H](CC(C)C)NC(=O)[C@H](Cc1ccccc1)NC(=O)[C@H](CCCNC(=N)N)NC(=O)[C@H](C)NC(=O)[C@H](CC(C)C)NC(=O)[C@H](CCCNC(=N)N)NC(=O)[C@H](CCC(N)=O)NC(=O)[C@@H](NC(=O)[C@H](C)NC(=O)[C@@H]1CSSC[C@H](NC(=O)[C@H](CCCCN)NC(=O)CC[C@H](NC(=O)CCCCCCCCCCCCCCCCCCC(=O)O)C(=O)O)C(=O)N[C@@H](CC(N)=O)C(=O)N[C@@H]([C@@H](C)O)C(=O)N[C@@H](C)C(=O)N[C@@H]([C@@H](C)O)C(=O)N1)[C@@H](C)O)C(=O)N[C@@H](CC(C)C)C(=O)N1CCC[C@H]1C(=O)N1CCC[C@H]1C(=O)N[C@H](C(=O)N[C@@H](CC(N)=O)C(=O)N[C@H](C(=O)NCC(=O)N[C@@H](CO)C(=O)N[C@@H](CC(N)=O)C(=O)N[C@H](C(=O)N1CCC[C@H]1C(N)=O)[C@@H](C)O)C(C)C)[C@@H](C)O` [Example 152, N-alpha-[(S)-4-Carboxy-4-(19-carboxynonadecanoylamino)butyryl]-[Arg14,Arg17,Pro37]-pramlintide] ({C20 diacid-γGlu}-KCNTATCATQRLARFLRHSSNNFGPILPPTNVGSNTP-NH2; disulfide 2-7 (inferred); C-terminus assumed)?
**A.** EC50 [1, 3]: 453 pM; EC50 ([2]; Table 7): 129 pM

**Q.** With `CC[C@H](C)[C@H](NC(=O)[C@@H]1CCCN1C(=O)CNC(=O)[C@H](Cc1ccccc1)NC(=O)[C@H](CC(N)=O)NC(=O)[C@H](CC(N)=O)NC(=O)[C@H](CO)NC(=O)[C@H](CO)NC(=O)[C@H](Cc1c[nH]cn1)NC(=O)[C@H](CCCNC(=N)N)NC(=O)[C@H](CC(C)C)NC(=O)[C@H](Cc1ccccc1)NC(=O)[C@H](CCC(=O)O)NC(=O)[C@H](C)NC(=O)[C@H](CC(C)C)NC(=O)[C@H](CCCNC(=N)N)NC(=O)[C@H](CCC(N)=O)NC(=O)[C@@H](NC(=O)[C@H](C)NC(=O)[C@@H]1CSSC[C@H](NC(=O)[C@H](CCCNC(=N)N)NC(=O)CNC(=O)CC[C@H](NC(=O)CCCCCCCCCCCCCCCCCCC(=O)O)C(=O)O)C(=O)N[C@@H](CC(N)=O)C(=O)N[C@@H]([C@@H](C)O)C(=O)N[C@@H](C)C(=O)N[C@@H]([C@@H](C)O)C(=O)N1)[C@@H](C)O)C(=O)N[C@@H](CC(C)C)C(=O)N1CCC[C@H]1C(=O)N1CCC[C@H]1C(=O)N[C@H](C(=O)N[C@@H](CC(N)=O)C(=O)N[C@H](C(=O)NCC(=O)N[C@@H](CO)C(=O)N[C@@H](CC(N)=O)C(=O)N[C@H](C(=O)N1CCC[C@H]1C(N)=O)[C@@H](C)O)C(C)C)[C@@H](C)O` [Example 153, N-alpha-[(S)-4-Carboxy-4-(19-carboxynonadecanoylamino)butyryl]-Gly-[Arg1,Glu14,Arg17,Pro37]-pramlintide] ({C20 diacid-γGlu}-GRCNTATCATQRLAEFLRHSSNNFGPILPPTNVGSNTP-NH2; disulfide 3-8 (inferred)) as the compound, how does the EC50 [1, 3] read?
**A.** 41 pM

**Q.** What about the EC50 ([2]; Table 6) of the same compound?
**A.** 43 pM

**Q.** How did the EC50 [1, 3] turn out when `CC[C@H](C)[C@H](NC(=O)[C@@H]1CCCN1C(=O)CNC(=O)[C@H](Cc1ccccc1)NC(=O)[C@H](CC(N)=O)NC(=O)[C@H](CC(N)=O)NC(=O)[C@H](CO)NC(=O)[C@H](CO)NC(=O)[C@H](Cc1c[nH]cn1)NC(=O)[C@H](CCCNC(=N)N)NC(=O)[C@H](CC(C)C)NC(=O)[C@H](Cc1ccccc1)NC(=O)[C@H](CC(N)=O)NC(=O)[C@H](C)NC(=O)[C@H](CC(C)C)NC(=O)[C@H](CCCNC(=N)N)NC(=O)[C@H](CCC(N)=O)NC(=O)[C@@H](NC(=O)[C@H](C)NC(=O)[C@@H]1CSSC[C@H](NC(=O)[C@H](CCCCN)NC(=O)CC[C@H](NC(=O)CCCCCCCCCCCCCCCCCCC(=O)O)C(=O)O)C(=O)N[C@@H](CC(N)=O)C(=O)N[C@@H]([C@@H](C)O)C(=O)N[C@@H](C)C(=O)N[C@@H]([C@@H](C)O)C(=O)N1)[C@@H](C)O)C(=O)N[C@@H](CC(C)C)C(=O)N1CCC[C@H]1C(=O)N1CCC[C@H]1C(=O)N[C@H](C(=O)N[C@@H](CC(N)=O)C(=O)N[C@H](C(=O)NCC(=O)N[C@@H](CO)C(=O)N[C@@H](CC(N)=O)C(=O)N[C@H](C(=O)N1CCC[C@H]1C(N)=O)[C@@H](C)O)C(C)C)[C@@H](C)O` [Example 154, N-alpha-[(S)-4-Carboxy-4-(19-carboxynonadecanoylamino)butyryl]-[Arg17,Pro37]-pramlintide] ({C20 diacid-γGlu}-KCNTATCATQRLANFLRHSSNNFGPILPPTNVGSNTP-NH2; disulfide 2-7 (inferred); C-terminus assumed) was run?
**A.** 57 pM
